The conditions of data set [1]: background statement; cited from earlier work.
The target of a further data set is T1, H1 histamine receptor (Cavia porcellus, UniProt P31389).
T1 construct: The longitudinal muscle was isolated from the intact ileum of guinea-pigs; from tissue; host or cells: guinea-pig ileum, longitudinal muscle (Hartly, male 250-400 g)
The data set can be described thus: In vitro antihistaminic activity, isolated guinea-pig ileum longitudinal muscle, histamine concentration-response shift (Schild plot). It counts as cell-based. To be noted: negative log of the molar concentration of antagonist which shifts the histamine concentration-response curve 2X to the right, 1 h incubation, read-out: pA2 (converted). The procedure: In vitro antihistiminic activity: The longitudinal muscle was isolated from the intact ileum of guinea-pigs (Hartly, male 250-400 g) and placed in an organ bath under 300 mg tension. After one hour of equilibration, cumulative concentration-response curves (Van Rossum, J. M., Arch. Int. Pharmacodyn. Ther. 143, 299-330, 1963) to histamine were obtained. Following washing, the tissues were incubated for one hour with the test compound and then a second histamine concentration-response curve was run. Shifts to the right of the agonist concentration-response curve produced by the antagonists were used to construct Schild plots (Arunlakshana, O. and Schild, H. O., Br. J. Pharmacol: 14, 48-58, 1959). Regression of Log (dr-1) on Log [B], where dr is an equiactive response in the presence and absence of antagonist and [B] is the molar concentration of antagonist, allowed an estimate of pA2, i.e. the negative log of the concentration of antagonist which shifts the control histamine concentration-response curve 2X to the right.

The conditions of data set [2]: antihistamines now in use; some patients; cited from earlier work.

SMILES strings stand for the structures.

Here are results for 8 molecules from US4657918A, “3-[6-[3-pyrrolidino-1-(4-tolyl)prop-1e-enyl]-2-pyridyl]propionic acid and derivatives having anti-histaminic activity” (priority 1982, dated 1987).

T1 sequence (P31389 whole entry): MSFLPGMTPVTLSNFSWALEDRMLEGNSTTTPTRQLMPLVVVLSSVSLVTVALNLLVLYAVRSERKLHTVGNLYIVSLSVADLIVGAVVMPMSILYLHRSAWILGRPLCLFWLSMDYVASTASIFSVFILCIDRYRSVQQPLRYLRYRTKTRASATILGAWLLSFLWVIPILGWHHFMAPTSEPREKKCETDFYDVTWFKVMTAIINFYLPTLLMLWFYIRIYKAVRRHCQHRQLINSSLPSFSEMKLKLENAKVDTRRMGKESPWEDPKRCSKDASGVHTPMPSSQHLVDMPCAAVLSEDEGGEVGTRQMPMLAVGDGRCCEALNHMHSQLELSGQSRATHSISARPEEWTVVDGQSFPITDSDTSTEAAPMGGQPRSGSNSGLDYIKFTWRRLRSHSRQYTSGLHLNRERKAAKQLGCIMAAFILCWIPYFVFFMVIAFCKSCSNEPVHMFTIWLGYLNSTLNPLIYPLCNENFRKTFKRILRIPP

Turning to `Cc1ccc(/C(=C\CN2CCCC2)c2ccccn2)cc1` [Triprolidine, (E)-1-(4-methylphenyl)-1-(2-pyridyl)-3-pyrrolidinoprop-1-ene], in data set [1], the antihistamine potency entry was “one of the most potent antihistamines available”.

Consider `O=C(O)/C=C/c1cccc(/C(=C/CN2CCCC2)c2ccccc2)n1` [E, (E)-3-[6-(1-phenyl-3-pyrrolidinoprop-1E-enyl)-2-pyridyl]acrylic acid], for which, on H1 histamine receptor, the Kb was 39.8 nM.

In the case of `Cc1ccc(/C(=C\CN(C)C)c2cccc(/C=C/C(=O)O)n2)cc1` [Compound B, (E)-3-{6-[3-Dimethylamino-1-(4-tolyl)prop-1E-enyl]-2-pyridyl}acrylic acid], on H1 histamine receptor, the Kb was 6.31 nM.

With `COc1ccc(/C(=C\CN2CCCC2)c2cccc(/C=C/C(=O)O)n2)cc1` [C, (E)-3-{6-[3-pyrrolidino-1-(4-methoxyphenyl)prop-1E-enyl]-2-pyridyl}acrylicacid], at H1 histamine receptor, the Kb was 1.26 nM.

`O=C(O)/C=C/c1cccc(/C(=C/CN2CCCC2)c2ccc(Cl)cc2)n1` [D, (E)-3-{6-[1-(4-chlorophenyl)-3-pyrrolidinoprop-1E-enyl]-2-pyridyl}acrylicacid]: the Kb on H1 histamine receptor was 1 nM.

In the case of `Cc1ccc(/C(=C\CN2CCCC2)c2cccc(C(=O)O)n2)cc1` [F, 6-[3-pyrrolidino-1-(4-tolyl)prop-1E-enyl]pyridine-2-carboxylic acid], at H1 histamine receptor, the Kb is 1.26 nM.

For `Cc1ccc(/C(=C\CN2CCCC2)c2cccc(CCC(=O)O)n2)cc1` [Compound A, 3-{6-[3-Pyrrolidino-1-(4-tolyl)prop-1E-enyl]-2-pyridyl}propionic acid], the Kb at H1 histamine receptor was 0.631 nM.

With `CC(CN1c2ccccc2Sc2ccccc21)N(C)C` (centres unmarked) [promethazine], the sedation or drowsiness result in data set [2] was “may cause sedation or drowsiness in some patients”.
